Test results reported in patent US12421269B2, “SGLT2/DPP4 inhibitor and application thereof” (CGeneTech (Suzhou, China) CO., Ltd., priority 2019, dated 2025).

How the values were obtained:
Human-SGLT2 = target: T1, Human-SGLT2 (Homo sapiens, UniProt P31639); assay: SGLT2 glucose transport assay ([14C]-labeled glucose uptake); type: cell-based; conditions: cells stably expressing Human-SGLT2, 37° C., 2 hours
T1 sequence (P31639 1-672): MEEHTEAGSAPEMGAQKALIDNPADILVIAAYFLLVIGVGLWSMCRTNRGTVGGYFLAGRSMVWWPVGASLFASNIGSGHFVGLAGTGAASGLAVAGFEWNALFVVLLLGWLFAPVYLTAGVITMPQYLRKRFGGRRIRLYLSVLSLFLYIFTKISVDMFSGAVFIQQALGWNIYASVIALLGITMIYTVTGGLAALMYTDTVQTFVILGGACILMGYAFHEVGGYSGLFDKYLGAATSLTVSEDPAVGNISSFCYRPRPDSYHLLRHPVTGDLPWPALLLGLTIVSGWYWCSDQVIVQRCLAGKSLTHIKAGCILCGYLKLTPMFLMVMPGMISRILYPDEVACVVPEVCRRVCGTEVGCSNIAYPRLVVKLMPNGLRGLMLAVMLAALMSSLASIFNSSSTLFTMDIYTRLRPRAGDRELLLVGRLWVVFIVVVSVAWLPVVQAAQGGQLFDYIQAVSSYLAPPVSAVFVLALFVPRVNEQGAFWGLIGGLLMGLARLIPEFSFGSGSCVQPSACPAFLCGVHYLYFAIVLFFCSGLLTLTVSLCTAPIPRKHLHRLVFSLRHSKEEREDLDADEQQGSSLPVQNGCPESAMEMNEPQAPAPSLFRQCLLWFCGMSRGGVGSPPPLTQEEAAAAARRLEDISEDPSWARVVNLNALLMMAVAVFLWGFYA
Description: To test the effect of compounds on the glucose transport activity of SGLT2 transporters by measuring the amount of [^14C]-labeled glucose entering highly expressed Human-SGLT2 cells.
The cells stably expressing Human-SGLT2 used for the experiments were constructed by WuXi AppTec Shanghai. SGLT2 cells were plated in 96-well cell culture plates (Greiner) and cultured overnight at 5% CO2, 37° C.
(§1) Experimental buffer: 10 mM 4-hydroxyethylpiperazine ethanesulfonic acid (HEPES), 1.2 mM magnesium chloride (MgCl2), 4.7 mM potassium chloride (KCl), 2.2 mM calcium chloride (CaCl2) and 120 mM sodium chloride (NaCl).
Termination buffer: 10 mM 4-hydroxyethylpiperazine ethanesulfonic acid (HEPES), 1.2 mM magnesium chloride (MgCl2), 4.7 mM potassium chloride (KCl), 2.2 mM calcium chloride (CaCl2), 120 mM sodium chloride (NaCl) and 1 μM LX4211.
The compounds were diluted with 100% dimethyl sulfoxide (DMSO) at a starting concentration of 10 μM, 8 points of 5-fold serial gradient dilution was made.
6 μM [^14C]-labeled methyl α-D-glucopyranoside was prepared with experimental buffer.
Cells were treated with 49 μL of experimental buffer, 1 μL of gradient-diluted compound, and 50 μL of 6 μM [^14C]-isotope-labeled glucose solution at 37° C. for 2 hours.
The liquid in the wells was aspirated and the cells were washed 3 times with termination buffer.
The cells were lysed with 50 μL of 10% sodium hydroxide solution, and the cell lysate was aspirated into a scintillation tube, and 2 mL of scintillation solution was added.
Readings were taken with an isotope detector (Tricarb).
The data were calculated by GraphPad Prism 5.0 software using the formula: log (inhibitor) vs. response—Variable slope to obtain the IC50 values of the tested compounds, and the experimental results are shown in Table 5.

Human-SGLT1 = target: T2, Human-SGLT1 (Homo sapiens, UniProt P13866); assay: SGLT1 glucose transport assay ([14C]-labeled glucose uptake); type: cell-based; conditions: cells stably expressing Human-SGLT1, 37° C., 2 hours
T2 sequence (P13866 1-664): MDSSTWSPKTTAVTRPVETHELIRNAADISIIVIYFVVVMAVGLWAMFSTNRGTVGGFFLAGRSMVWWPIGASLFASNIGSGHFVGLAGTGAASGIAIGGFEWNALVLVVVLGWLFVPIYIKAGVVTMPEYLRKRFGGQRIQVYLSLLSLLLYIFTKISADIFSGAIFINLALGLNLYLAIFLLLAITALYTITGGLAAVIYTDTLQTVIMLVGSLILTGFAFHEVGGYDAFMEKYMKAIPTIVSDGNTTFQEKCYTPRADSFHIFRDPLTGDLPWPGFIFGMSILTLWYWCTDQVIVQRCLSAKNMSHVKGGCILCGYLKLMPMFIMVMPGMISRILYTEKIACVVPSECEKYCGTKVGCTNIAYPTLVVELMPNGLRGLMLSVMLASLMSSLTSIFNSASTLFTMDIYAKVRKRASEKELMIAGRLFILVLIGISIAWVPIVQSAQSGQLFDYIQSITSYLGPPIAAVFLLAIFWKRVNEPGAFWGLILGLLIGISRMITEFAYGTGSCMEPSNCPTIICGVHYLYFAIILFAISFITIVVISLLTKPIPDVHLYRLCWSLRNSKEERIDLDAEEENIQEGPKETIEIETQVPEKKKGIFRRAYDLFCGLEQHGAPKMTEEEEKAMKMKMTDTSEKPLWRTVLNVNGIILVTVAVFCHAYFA
Description: To test the effect of compounds on the glucose transport activity of SGLT1 transporters by measuring the amount of [^14C]-labeled glucose entering highly expressed Human-SGLT1 cells.
The cells stably expressing Human-SGLT1 used for the experiments were constructed by WuXi AppTec Shanghai. The SGLT1 cells were plated in Cytostar-T (PerkinElmer) 96-well cell culture plates and cultured overnight at 5% CO2, 37° C.
as §1
The compounds were diluted with 100% dimethyl sulfoxide (DMSO) at a starting concentration of 1 mM, 8 points of 5-fold serial gradient dilution was made.
3 μM [^14C]-labeled methyl α-D-glucopyranoside (Methyl a-D-glucopyranosid) was prepared with experimental buffer.
Cells were treated with 49 μL of experimental buffer, 1 μL of gradient-diluted compound and 50 μL of 3 μM [^14C]-isotope-labeled glucose solution at 37° C. for 2 hours.
Readings were taken with an isotope detector (Micro beta Reader).
The data were calculated by GraphPad Prism 5.0 software using the formula: log(inhibitor) vs. response—Variable slope to obtain the IC50 values of the tested compounds, and the experimental results are shown in Table 5.

Structure (SMILES) | IC50 (Human-SGLT2) [nM] | IC50 (Human-SGLT1) [nM]
CS[C@H]1O[C@@H](c2ccc(F)c(Cc3ccc(O[C@@H]4CCN([C@H]5CO[C@H](c6cc(F)ccc6F)[C@@H](N)C5)C4)cc3)c2)[C@H](O)[C@@H](O)[C@@H]1O [WX001] | 21.8 | 1280
CS[C@H]1O[C@@H](c2cc(Cc3ccc(O[C@@H]4CCN([C@H]5CO[C@H](c6cc(F)ccc6F)[C@@H](N)C5)C4)cc3)c(F)cc2F)[C@H](O)[C@@H](O)[C@@H]1O [WX006] | 7.02 | 298
